Data published in US5191079A, “Quinolinecarboxylic acid derivatives” (priority 1990, dated 1993).
≈ marks a conversion by molar mass, not a printed value. Counter-ions that a name gives are not always drawn. Like-named read-outs stand apart in the source and are kept apart here.

What was measured:
Format in all cases: cell-based
[1] = tested on: Streptococcus pyogenes Cook; assay: MIC, Experiment 1; details: S. pyogenes Cook, Gram +, agar with 5% defibrinated horse blood, read-out: Min. inhib. concentr. (MIC)
Method: (§1) The compounds of the present invention (B, E, G, H, M, N, O, P and Q) were each dissolved in dimethylsulfoxide to prepare a solution of 5000 μg/ml in concentration. The compounds of the present invention (I, J and K) and the known compound (Y) were each dissolved in sterilized distilled water to prepare a solution of 5000 μg/ml in concentration. Each solution was diluted with sterilized distilled water to prepare a standard solution with a concentration of each test compound: 1000 μg/ml. The test was carried out by a method as appointed by Japan Society of Chemotherapy [cf. Chemotherapy, 29, 76-79 (1981), TOKYO].
(§2) As to Streptococcus pneumoniae and Streptococcus pyogenes, Brain heart infusion broth (manufactured by DIFCO) was used as the medium for the preculture thereof, and a heart infusion agar medium containing 5% defibrinated horse blood (manufactured by Nissui Seiyaku K. K., Japan) was used as the medium for the measurement of minimum inhibitory concentration (MIC). As to other microorganisms, a sensitivity test broth (manufactured by Nissui Seiyaku K. K.) was used as the medium for the preculture thereof, and a sensitivity test agar medium (manufactured by Nissui Seiyaku K. K.) was used as the medium for the measurement of MIC.

[2] = tested on: Staphylococcus aureus FDA 209P JC-1; assay: MIC, Experiment 1; details: FDA209P, S. aureus FDA 209P JC-1, Gram +, read-out: Min. inhib. concentr. (MIC)
Method: as §1, §2

[3] = tested on: Streptococcus pneumoniae IID 554; assay: MIC, Experiment 1; details: IID554, S. pneumoniae IID 554, Gram +, agar with 5% defibrinated horse blood, read-out: Min. inhib. concentr. (MIC)
Method: as §1, §2

[4] = tested on: Staphylococcus aureus Terajima (IID 670); assay: MIC, Experiment 1; details: IID670, S. aureus Terajima (IID 670), Gram +, read-out: Min. inhib. concentr. (MIC)
Method: as §1, §2

[5] = tested on: Enterobacter cloacae 963; assay: MIC, Experiment 1; details: E. cloacae 963, Gram -, read-out: Min. inhib. concentr. (MIC)
Method: as §1, §2

[6] = tested on: Streptococcus pneumoniae IID 552; assay: MIC, Experiment 1; details: IID552, S. pneumoniae IID 552, Gram +, agar with 5% defibrinated horse blood, read-out: Min. inhib. concentr. (MIC)
Method: as §1, §2

[7] = tested on: Staphylococcus aureus FDA 243; assay: MIC, Experiment 1; details: FDA243, S. aureus FDA 243, Gram +, read-out: Min. inhib. concentr. (MIC)
Method: as §1, §2

[8] = tested on: Klebsiella pneumoniae PCI-602; assay: MIC, Experiment 1; details: PCI602, K. pneumoniae PCI-602, Gram -, read-out: Min. inhib. concentr. (MIC)
Method: as §1, §2

[9] = tested on: Streptococcus pyogenes Su; assay: MIC, Experiment 1; details: S. pyogenes Su, Gram +, agar with 5% defibrinated horse blood, read-out: Min. inhib. concentr. (MIC)
Method: as §1, §2

[10] = tested on: Staphylococcus aureus ATCC 9144; assay: MIC, Experiment 1; details: ATCC9144, S. aureus ATCC 9144, Gram +, read-out: Min. inhib. concentr. (MIC)
Method: as §1, §2

[11] = tested on: Staphylococcus aureus Cowan I (IID 975); assay: MIC, Experiment 1; details: IID975, S. aureus Cowan I (IID 975), Gram +, read-out: Min. inhib. concentr. (MIC)
Method: as §1, §2

[12] = tested on: Acinetobacter calcoaceticus Ac 54; assay: MIC, Experiment 1; details: AC54, A. calcoaceticus Ac 54, Gram -, read-out: Min. inhib. concentr. (MIC)
Method: as §1, §2

[13] = tested on: Staphylococcus aureus MS-353; assay: MIC, Experiment 1; details: MS353, S. aureus MS-353, Gram +, read-out: Min. inhib. concentr. (MIC)
Method: as §1, §2

[14] = tested on: Pseudomonas aeruginosa NCTC 10490; assay: MIC, Experiment 1; details: NCTC10490, P. aeruginosa NCTC 10490, Gram -, read-out: Min. inhib. concentr. (MIC)
Method: as §1, §2

[15] = tested on: Micrococcus luteus ATCC 9341; assay: MIC, Experiment 1; details: ATCC9341, M. luteus ATCC 9341, Gram +, read-out: Min. inhib. concentr. (MIC)
Method: as §1, §2

[16] = tested on: Proteus mirabilis IFO 3849; assay: MIC, Experiment 1; details: IFO3849, P. mirabilis IFO 3849, Gram -, read-out: Min. inhib. concentr. (MIC)
Method: as §1, §2

[17] = tested on: Streptococcus pyogenes Sv; assay: MIC, Experiment 1; details: S. pyogenes Sv, Gram +, agar with 5% defibrinated horse blood, read-out: Min. inhib. concentr. (MIC)
Method: as §1, §2

[18] = tested on: Bacillus subtilis ATCC 6633; assay: MIC, Experiment 1; details: ATCC6633, B. subtilis ATCC 6633, Gram +, read-out: Min. inhib. concentr. (MIC)
Method: as §1, §2

[19] = tested on: clinically isolated Enterococcus faecalis; assay: In vitro antibacterial activity against clinical isolates, Experiment 2
Method: (§3) The above solutions were then diluted with sterilized distilled water to prepare a standard solution with a concentration of the test compound: 1000 μg/ml each.
(§4) For the preculture of each microorganism, there was used as the medium a sensitivity test broth (manufactured by Nissui Seiyaku K. K., Japan), and for the measurement of MIC, there was used a sensitivity test agar medium (manufactured by Nissui Seiyaku K. K.).
(§5) The clinically isolates used above were isolated from Nov. 1988 to Jun. 1989 and were obtained from Research Section, Tokyo Clinical Research Center.

[20] = tested on: clinically isolated Staphylococcus epidermidis; assay: as above; details: 25 clinical strains S. epidermidis; for MIC / MIC50 / MIC90: Staphylococcus epidermidis; for MIC50: 50% of strains, read-out: MIC50; for MIC90: 90% of strains, read-out: MIC90
Method: as §3, §4, §5

[21] = tested on: clinically isolated Staphylococcus aureus; assay: as above; details: 25 clinical strains S. aureus incl. 16 methicillin resistant; for MIC50: 50% of strains, read-out: MIC50; for MIC90: 90% of strains, read-out: MIC90
Method: as §3, §4, §5

[22] = tested on: clinically isolated Enterococcus faecium; assay: as above; details: for MIC / MIC90: 25 clinical strains E. faecium; for MIC90: 90% of strains, read-out: MIC90
Method: as §3, §4, §5

[23] = 25 clinical strains E. faecalis
[24] = 25 clinical strains E. faecalis, 90% of strains, read-out: MIC90

Row | SMILES | MIC [1] [µg/mL] | MIC [2] [µg/mL] | MIC [3] [µg/mL] | MIC [4] [µg/mL] | MIC [5] [µg/mL] | MIC [6] [µg/mL] | MIC [7] [µg/mL] | MIC [8] [µg/mL] | MIC [9] [µg/mL] | MIC [10] [µg/mL] | MIC [11] [µg/mL] | MIC [12] [µg/mL] | MIC [13] [µg/mL] | MIC [14] [µg/mL] | MIC [15] [µg/mL] | MIC [16] [µg/mL] | MIC [17] [µg/mL] | MIC [18] [µg/mL] | MIC [19, 23] [µg/mL] | MIC50 [20] [µg/mL] | further results
1 | CN1Cc2csc3c(C(=O)O)c(=O)c4cc(F)c(N5CCC(N(C)C)CC5)c1c4n23 [Compound (H), 9,1-(methylimino)methano-7-fluoro-8-(4-dimethylaminopiperidino)-5-oxo-5H-thiazolo[3,2-a]quinoline-4-carboxylic acid] | 0.05 (≈ 0.116 µM) | 0.1 (≈ 0.232 µM) | 0.05 (≈ 0.116 µM) | 0.05 (≈ 0.116 µM) | 0.39 (≈ 0.906 µM) | 0.05 (≈ 0.116 µM) | 0.05 (≈ 0.116 µM) | 0.025 (≈ 0.0581 µM) | 0.05 (≈ 0.116 µM) | 0.05 (≈ 0.116 µM) | 0.05 (≈ 0.116 µM) | 0.1 (≈ 0.232 µM) | 0.1 (≈ 0.232 µM) | 0.78 (≈ 1.81 µM) | 0.39 (≈ 0.906 µM) | 0.78 (≈ 1.81 µM) | 0.05 (≈ 0.116 µM) | 0.05 (≈ 0.116 µM) | 0.2 to 6.25 (≈ 0.465 to 14.5 µM) | 0.05 (≈ 0.116 µM) | MIC50 [19]: 0.39 µg/mL (≈ 0.906 µM); MIC90 [19, 24]: 3.13 µg/mL (≈ 7.27 µM); MIC [20]: 0.05 to 3.13 µg/mL (≈ 0.116 to 7.27 µM); MIC90 [20]: 3.13 µg/mL (≈ 7.27 µM); MIC [21]: 0.05 to 3.13 µg/mL (≈ 0.116 to 7.27 µM); MIC50 [21]: 0.1 µg/mL (≈ 0.232 µM); MIC90 [21]: 3.13 µg/mL (≈ 7.27 µM); MIC50 [22]: 1.56 µg/mL (≈ 3.62 µM); MIC [22]: 0.2 to 25 µg/mL (≈ 0.465 to 58.1 µM); MIC90 [22]: 12.5 µg/mL (≈ 29 µM)
2 | CN1Cc2csc3c(C(=O)O)c(=O)c4cc(F)c(N5CCOC(CCl)C5)c1c4n23 (stereo not drawn) [Compound (D), 9,1-(Methylimino)methano-7-fluoro-8-(2-chloromethylmorpholino)-5-oxo-5H-thiazolo[3,2-a]quinoline-4-carboxylic acid] | 0.05 (≈ 0.114 µM) | 0.013 (≈ 0.0297 µM) | 0.05 (≈ 0.114 µM) | 0.025 (≈ 0.0571 µM) | 0.39 (≈ 0.891 µM) | 0.05 (≈ 0.114 µM) | ≤ 0.006 | 0.025 (≈ 0.0571 µM) | 0.025 (≈ 0.0571 µM) | 0.013 (≈ 0.0297 µM) | 0.013 (≈ 0.0297 µM) | ≤ 0.006 | 0.013 (≈ 0.0297 µM) | 0.39 (≈ 0.891 µM) | 0.05 (≈ 0.114 µM) | 0.39 (≈ 0.891 µM) | 0.05 (≈ 0.114 µM) | ≤ 0.006 | 0.05 to 3.13 (≈ 0.114 to 7.15 µM) | 0.013 (≈ 0.0297 µM) | MIC50 ([19]; 25 clinical strains E. faecalis, 50% of strains, read-out: MIC50): 0.2 µg/mL (≈ 0.457 µM); MIC90 [19, 24]: 1.56 µg/mL (≈ 3.56 µM); MIC [20]: 0.006 to 0.39 µg/mL (≈ 0.0137 to 0.891 µM); MIC90 [20]: 0.2 µg/mL (≈ 0.457 µM); MIC [21]: 0.006 to 0.2 µg/mL (≈ 0.0137 to 0.457 µM); MIC50 [21]: 0.013 µg/mL (≈ 0.0297 µM); MIC90 [21]: 0.2 µg/mL (≈ 0.457 µM); MIC50 [22]: 0.39 µg/mL (≈ 0.891 µM); MIC [22]: 0.05 to 3.13 µg/mL (≈ 0.114 to 7.15 µM); MIC90 [22]: 3.13 µg/mL (≈ 7.15 µM)
3 | CN1CCN(c2c(F)cc3c(=O)c(C(=O)O)c4scc5n4c3c2OC5)CC1 [Compound (Y), 9,1-Epoxymethano-7-fluoro-8-(4-methyl-1-piperazinyl)-5-oxo-5H-thiazolo[3,2-a]quinoline-4-carboxylic acid hydrochloride, reference compound] | 0.1 | 0.2 | 0.2 | 0.1 | 0.1 | 0.1 | 0.05 | 0.025 | 0.1 | 0.05 | 0.1 | 0.2 | 0.1 | 0.78 | 1.56 | 0.2 | 0.2 | 0.1 | 0.2 to 6.25 | 0.1 | MIC50 [19]: 0.39 µg/mL; MIC90 [19]: 6.25 µg/mL; MICrange [20]: 0.025 to 25 µg/mL; MIC90 [20]: 12.5 µg/mL; MIC [21]: 0.05 to 12.5 µg/mL; MIC50 [21]: 0.2 µg/mL; MIC90 [21]: 12.5 µg/mL; MIC50 [22]: 3.13 µg/mL; MIC [22]: 0.39 to 12.5 µg/mL; MIC90 [22]: 6.52 µg/mL
